According to article PMC8270334, “Design, Sustainable Synthesis and Biological Evaluation of a Novel Dual α2A/5-HT7 Receptor Antagonist with Antidepressant-Like Properties” (Molecules, 2021):

Legend:
α2B-adrenergic receptor = target: T1, α2B-adrenergic receptor (Homo sapiens, UniProt P18089); test: intrinsic activity (antagonist) assay, α2B AequoScreen cell line, aequorin calcium mobilization; type: cell-based; settings: AequoScreen cells, ± SEM, two independent experiments
T1 sequence (P18089 1-450): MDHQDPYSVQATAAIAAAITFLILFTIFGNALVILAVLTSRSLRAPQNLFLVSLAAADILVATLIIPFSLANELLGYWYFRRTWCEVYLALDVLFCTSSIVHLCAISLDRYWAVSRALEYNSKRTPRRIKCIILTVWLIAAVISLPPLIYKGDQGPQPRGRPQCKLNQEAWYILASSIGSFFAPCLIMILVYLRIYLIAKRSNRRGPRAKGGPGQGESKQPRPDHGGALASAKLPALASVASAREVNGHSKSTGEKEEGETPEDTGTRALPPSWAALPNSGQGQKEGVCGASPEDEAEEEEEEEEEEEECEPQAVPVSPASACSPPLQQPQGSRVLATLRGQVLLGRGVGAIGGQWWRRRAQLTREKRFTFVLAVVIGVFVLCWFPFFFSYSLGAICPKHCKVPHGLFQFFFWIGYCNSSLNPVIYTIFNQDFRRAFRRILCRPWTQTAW
Protocol: The intrinsic activity assays for the α2B-adrenergic receptor were assessed by luminescence detection of calcium mobilization using the recombinant expressed jellyfish photoprotein, aequorin. Measurements were performed with adrenergic α2B AequoScreen cell line (PekinElmer). The cell density in 96-well format measurements was 5000 cells per well. Cell harvesting, coelenterazine h (Invitrogen, cat. no. C 6780) loading and preparation were done according to instructions presented in the AequoScreen Starter Kit Manual (PerkinElmer). Compound concentration series (50 μL/well) were diluted in 0.1% BSA (Intergen) containing assay buffer (D-MEM/F-12, Invitrogen cat. no. 11039) and prepared in white ½ Area Plate–96 well microplates (PerkinElmer,). The cell suspension was dispensed on the ligands using the POLARstar optima reader injectors. For the antagonist assay, cells were injected (50 μL) into the assay plate with antagonists (50 μL) using the POLARstar optima reader. The antagonist dilution series with four replicates were prepared as instructed in the AequoScreen Starter Kit Manual at the concentrations from 10^–11 to 10^–6 M/L. The agonist used for […] was Oxymetazoline (Sigma, cat. no. O2378), which at a single concentration was injected (50 μL, final concentration EC80) on the preincubated (15–20 min) mixture of cells and antagonist, and the emitted light was recorded for 20 s.

Albino Swiss mice = test: spontaneous locomotor activity; type: in vivo; settings: ip
Protocol: Adult male Albino Swiss mice (CD-1, 8 weeks old, 25–30 g: Jagiellonian University Medical College, Krakow, Poland) were used in the study. Animals were housed in groups of 8 in a transparent plastic cage (382 × 220 × 150 mm) at room temperature (22 ± 2 °C), on a 12 h light/dark cycle with ad libitum access to food and water. Mice were handled for one week before starting the experimental procedures. The separate groups of animals were used in the forced swim test and in the locomotor studies. All studies were approved by the Institutional Animal Care and Ethics Committee of the Jagiellonian University (approval no.: 80/2015).
Tested compounds were dissolved with 1% Tween 80. […] The control animals were given ip injections of the 2% DMSO in 1% Tween 80 (vehicle). The volume of vehicle or drug solutions was 10 mL/kg.
Locomotor activity was recorded with an Opto M3 multichannel activity monitor, photoresistor actometers connected to a counter for the recording of light-beam interruptions (MultiDevice Software v1.3, Columbus Instruments, Columbus, OH, USA). The mice, after being placed into the cages individually, had their activity evaluated between the 2nd and the 6th minute. The chosen time period corresponded with the time interval considered in the FST. Spontaneous locomotor activity was evaluated as the distance travelled plus the movements of climbing by animals.

5-HT1AR = target: T2, 5-HT1AR (Homo sapiens, UniProt P08908); test: functional profiling at 5-HT1AR, cAMP-based assays (Eurofins); type: cell-based; settings: cAMP-based assay; for 5-HT1AR antagonist property: at 1 µM; for EC50: read-out: 5-HT1AR agonist activity EC50
T2 construct: Eurofins Scientific, France
T2 sequence (P08908 1-422): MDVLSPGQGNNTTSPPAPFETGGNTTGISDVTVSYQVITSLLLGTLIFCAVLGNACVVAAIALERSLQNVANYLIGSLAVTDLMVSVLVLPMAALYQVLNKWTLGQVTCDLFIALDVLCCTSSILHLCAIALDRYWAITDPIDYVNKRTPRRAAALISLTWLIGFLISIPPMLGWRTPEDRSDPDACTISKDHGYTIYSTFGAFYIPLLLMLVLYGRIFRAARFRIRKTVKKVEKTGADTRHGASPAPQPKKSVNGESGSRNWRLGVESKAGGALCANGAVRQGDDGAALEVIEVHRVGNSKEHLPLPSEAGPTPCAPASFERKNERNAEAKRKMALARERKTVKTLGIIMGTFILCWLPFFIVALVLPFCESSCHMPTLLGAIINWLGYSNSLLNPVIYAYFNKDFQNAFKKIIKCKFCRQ

human 5-HT1A receptor = target: T3, human 5-HT1A receptor (Homo sapiens, UniProt P08908); test: radioligand binding, [3H]-8-OH-DPAT displacement at 5-HT1AR in HEK293 cells; settings: HEK-293 cells, ± SEM
T3 construct: expressed in transfected cells; host or cells: HEK293
T3 sequence (P08908 1-422): T2 sequence (P08908 1-422)
Protocol: All experiments were performed using HEK293 cells stably expressing human 5-HT1A, 5-HT6, 5-HT7b, and D2L receptors or CHO-K1 cells with a plasmid containing the human 5-HT2A receptor coding sequence (PerkinElmer, Waltham, MA, USA), according to previously reported procedures. Cells were cultured in 150 cm^2 flasks and, after reaching a 90% confluence, were washed with PBS and the centrifugated (200 g) in PBS containing 0.1 mM EDTA and 1 mM dithiothreitol. Cell pellets were subsequently homogenized (in Ultra Turrax tissue homogenizer) and centrifugated twice (35,000× g for 15 min at 4 °C), with 15 min incubation at 37 °C between the centrifugations. All assays were incubated in dedicated buffers and in a total volume of 200 µL in 96-well microtitre plates for 1 h at 37 °C, except for 5-HT1AR and 5-HT2AR that was incubated for 1 h at room temperature. The process of equilibration is terminated by rapid filtration through Unifilter-96 (PerkinElmer) plates with a 96-well cell harvester and radioactivity retained on the filters was quantified on a Microbeta plate reader (PerkinElmer, USA). For displacement studies, the following assay samples containing the proper radioligand were used: 2.5 nM [^3H]-8-OH-DPAT (PerkinElmer, #NET929001MC) for 5-HT1AR; 1 nM [^3H]-ketanserin (PerkinElmer, #NET791250UC) for 5-HT2AR; 2 nM [^3H]-LSD (PerkinElmer, #NET638250UC) for 5-HT6R; and 0.8 nM [^3H]-5-CT (PerkinElmer, #NET1188U100UC) for 5-HT7R or 2.5 nM [^3H]-raclopride (PerkinElmer, #NET975001MC) for D2LR. Non-specific binding was determined using 10 μM 5-HT for 5-HT1AR and 5-HT7R, 20 μM mianserin for 5-HT2AR, 10 μM methiothepine for 5-HT6R, and 10 μM haloperidol for D2LR. […] Results were expressed as means of at least three separate experiments.

[1] = doses effective in the FST (6: 4, 8 mg/kg; mirtazapine: 16 mg/kg)

Compound	Kb (α2B-adrenergic receptor)	influence on spontaneous locomotor activity (sedation) (Albino Swiss mice; 1 mg/kg)	influence on spontaneous locomotor activity (sedation) (Albino Swiss mice; higher doses (above 1 mg/kg))	5-HT1AR antagonist property (5-HT1AR)	EC50 (5-HT1AR)	Ki (human 5-HT1A receptor)	influence on spontaneous locomotor activity (sedation) (Albino Swiss mice; [1])
CC1(C)Cc2cccc(OCCN3CCC(NS(=O)(=O)c4cncc5ccccc45)CC3)c2O1 [Compound 13, 4-Isoquinoline-N-{1-[2-(2,2-dimethyl-2,3-dihydrobenzofuran-7-yloxy)ethyl]piperidin-4-yl}sulfonamide]	27 ± 13 nM	without affecting locomotor activity	caused sedation	no antagonist property	> 4000 nM	260 ± 18 nM	–
CC1(C)Cc2cccc(OCCN3CCC(NS(=O)(=O)c4ccc(F)cc4)CC3)c2O1 [Compound 6, 4-Fluoro-N-{1-[2-(2,2-dimethyl-2,3-dihydrobenzofuran-7-yloxy)ethyl]piperidin-4-yl} benzenesulfonamide]	103 ± 25 nM	–	–	no antagonist property	> 4000 nM	221 ± 25 nM	induced sedation
CC1(C)Cc2cccc(OCCN3CCC(NS(=O)(=O)c4cc(Cl)ccc4F)CC3)c2O1 [Compound 8, 5-Chloro-2-fluoro-N-{1-[2-(2,2-dimethyl-2,3-dihydrobenzofuran-7-yloxy)ethyl]piperidin-4-yl}benzenesulfonamide]	142 ± 31 nM	–	–	no antagonist property	> 4000 nM	260 ± 29 nM	no influence on the spontaneous locomotor activity
